Measured values as given in patent US20230310409A1, “TREATING RHEUMATOID ARTHRITIS” (BRISTOL-MYERS SQUIBB COMPANY, priority 2020, published 2023).
Each block holds one molecule with its values, some of them ahead of it.

Assays:
Assay type in all cases: in vivo, mice (male DBA/1)
[1] = Pharmacokinetics of Compound (I) in CIA model, whole blood (DBS) drug concentration by LCMS
Description: (§1) Male DBA/1 mice (9-11 weeks of age, Harlan) were primed with bovine type II collagen (Chondrex #20021) in adjuvant (Sigma adjuvant system, Sigma Aldrich #S6322) at the base of tail on day 1 and on day 21. Mice were randomized into 7 groups based on body weight and assigned as either vehicle (10% ethanol; 45% PEG 300; 5% pluronic F-68; 40% 20 mM citrate buffer); Compound (I) at 0.25 and 2.5 mg/kg or mEnbrel (mouse Enbrel) at 10 mg/kg or combination of Compound (I) with mEnbrel at 0.25+10 mg/kg and 2.5+10 mg/kg or mCTLA4 (mouse CTLA4-Ig) (as a reference compound) at 3 mg/kg dose level. […] Disease activity was monitored and scored twice per week using standard criteria (0: normal; 1: mild, but definite redness and swelling of the ankle or wrist, or apparent redness and swelling limited to individual digits regardless of number of affected digits; 2: moderate redness and swelling of ankle or wrist; 3: severe redness and swelling of the entire paw including digits; 4: maximally inflamed limb with involvement of multiple joints). […]
FIG. 3: Pharmacokinetic analysis of Compound (I) in CIA model of arthritis. […] Following 19 days of dosing, whole blood was drawn at different time points and DBS drug concentrations were measured by LCMS. […]

IL-6 = assay: Plasma IL-6 at termination in collagen-induced arthritis model; settings: Compound (I) alone, 0.25 and 2.5 mg/kg
Description: Male DBA/1 mice (9-11 weeks of age, Harlan) were primed with bovine type II collagen (Chondrex #20021) in adjuvant (Sigma adjuvant system, Sigma Aldrich #S6322) at the base of tail on day 1 and on day 21. Mice were randomized into 7 groups based on body weight and assigned as either vehicle (10% ethanol; 45% PEG 300; 5% pluronic F-68; 40% 20 mM citrate buffer); Compound (I) at 0.25 and 2.5 mg/kg or mEnbrel (mouse Enbrel) at 10 mg/kg or combination of Compound (I) with mEnbrel at 0.25+10 mg/kg and 2.5+10 mg/kg or mCTLA4 (mouse CTLA4-Ig) (as a reference compound) at 3 mg/kg dose level. Compound (I) was administered from day 21 by oral gavage once daily whereas mEnbrel and mCTLA4 were administered from day of primary immunization, twice per week by intraperitoneal injection. Disease activity was monitored and scored twice per week using standard criteria (0: normal; 1: mild, but definite redness and swelling of the ankle or wrist, or apparent redness and swelling limited to individual digits regardless of number of affected digits; 2: moderate redness and swelling of ankle or wrist; 3: severe redness and swelling of the entire paw including digits; 4: maximally inflamed limb with involvement of multiple joints). […] At the time of termination (A) serum anti-collagen antibody titer and (B) plasma IL-6 was assessed. […]

[2] = test system: collagen-induced arthritis model; assay: Collagen-induced arthritis in mice, clinical score (arthritic index); settings: for disease score: mouse CIA, Compound (I) 0.25 mg/kg oral once daily from day 21, mEnbrel 10 mg/kg i.p. twice per week from primary immunization, combination 0.25+10 mg/kg
Description: Male DBA/1 mice (9-11 weeks of age, Harlan) were primed with bovine type II collagen (Chondrex #20021) in adjuvant (Sigma adjuvant system, Sigma Aldrich #S6322) at the base of tail on day 1 and on day 21. Mice were randomized into 7 groups based on body weight and assigned as either vehicle (10% ethanol; 45% PEG 300; 5% pluronic F-68; 40% 20 mM citrate buffer); Compound (I) at 0.25 and 2.5 mg/kg or mEnbrel (mouse Enbrel) at 10 mg/kg or combination of Compound (I) with mEnbrel at 0.25+10 mg/kg and 2.5+10 mg/kg or mCTLA4 (mouse CTLA4-Ig) (as a reference compound) at 3 mg/kg dose level. Compound (I) was administered from day 21 by oral gavage once daily whereas mEnbrel and mCTLA4 were administered from day of primary immunization, twice per week by intraperitoneal injection. Disease activity was monitored and scored twice per week using standard criteria (0: normal; 1: mild, but definite redness and swelling of the ankle or wrist, or apparent redness and swelling limited to individual digits regardless of number of affected digits; 2: moderate redness and swelling of ankle or wrist; 3: severe redness and swelling of the entire paw including digits; 4: maximally inflamed limb with involvement of multiple joints).
Compound (I) was tested in the semi-therapeutic mode of treatment in mouse collagen-induced arthritis model. Dosing initiated after the antigen boost (from day 21) and continued up to day 45.
Compound (I) was tested in combination with the TNFα blocking agent mEnbrel in the collagen-induced arthritis model where dosing of Compound (I) was initiated after the antigen boost whereas mEnbrel was administered from the day of primary immunization.
Mice were treated with respective treatment. During the entire study course (A) and at the time of termination (B) disease was assessed by measuring the clinical score (arthritic index). Data are from one experiment with 10 mice per group. ***P<0.0001 versus vehicle by one-way ANOVA with a Dunnett test.

anti-collagen antibodies = assay: Serum anti-collagen antibody titer at termination in collagen-induced arthritis model; settings: Compound (I) alone, 0.25 and 2.5 mg/kg
Description: as §1
FIG. 2: Inhibition of circulating markers by Compound (I) alone and in combination with mEnbrel. […] At the time of termination (A) serum anti-collagen antibody titer and (B) plasma IL-6 was assessed. […]

whole blood drug concentration ([1]; 0.25 and 2.5 mg/kg oral, after 19 days of dosing, 1-24 h post dose): dose dependent increase
whole blood concentration of Compound (I) in the presence of mEnbrel ([1]; co-treatment with mEnbrel 10 mg/kg): not altered
Molecule: Cc1c(-c2[nH]c3ccc(C4CCN(CC(N)=O)CC4)cc3c2C(C)C)cn2ncnc2c1C [Compound (I), 2-(4-(2-(7,8-dimethyl-[1,2,4]triazolo[1,5-a]pyridin-6-yl)-3-isopropyl-1H-indol-5-yl)piperidin-1-yl)acetamide]
plasma IL-6 (IL-6): dose dependent reduction
arthritic score at the termination of the study ([2]; Compound (I) alone, 0.25 and 2.5 mg/kg oral once daily from day 21): Significant dose dependent suppression
disease score [2]: 82 % of control
inhibition of clinical signs of disease, earliest time ([2]; semi-therapeutic mode, dosing from day 21 up to day 45, 0.25 and 2.5 mg/kg oral once daily): 7 days post dosing
serum anti-collagen-antibody titer (anti-collagen antibodies): dose dependent reduction

B1: mEnbrel: fully mouse version of Enbrel: mouse TNFR1B extracellular domain (Val-23 to Gly-258) fused to mouse IgG2A, TNFα blocking agent (protein, listed as Mus musculus)
chain: MRAWIFFLLCLAGRALAVPAQVVLTPYKPEPGYECQISQEYYDRKAQMCCAKCPPGQYVKHFCNKTSDTVCADCEASMYTQVWNQFRTCLSCSSSCTTDQVEIRACTKQQNRVCACEAGRYCALKTHSGSCRQCMRLSKCGPGFGVASSRAPNGNVLCKACAPGTFSDTTSSTDVCRPHRICSILAIPGNASTDAVCAPESPTLSAIPRTLYVSQPEPTRSQPLDQEPGPSQTPSILTSLGSTPIIEQSTKGGEPRGPTIKPCPPCKCPAPNLLGGPSVFIFPPKIKDVLMISLSPIVTCVVVDVSEDDPDVQISWFVNNVEVHTAQTQTHREDYNSTLRVVSALPIQHQDWMSGKEFKCKVNNKDLPAPIERTISKPKGSVRAPQVYVLPPPEEEMTKKQVTLTCMVTDFMPEDIYVEWTNNGKTELNYKNTEPVLDSDGSYFMYSKLRVEKKNWVERNSYSCSVVHEGLHNHHTTKSFSRTPGK
modifications: SIGNAL (1)..(17) Osteonectin signal sequence; (18)..(253) Mouse TNFR1B (V23 - G258); (254)..(486) Mouse IgG2a
disease score [2]: 56 % of control
